Like-named read-outs stand apart in the source and are kept apart here. Where a SMILES comes first, the peptide text is derived from it.
Tests used:
[1] = molecular target: Trypsin, from human pancreas (Homo sapiens, UniProt P07477); experiment: Enzymatic assay, trypsin; settings: at 100 μM
[2] = molecular target: T1, Chymase, from human skin (Homo sapiens, UniProt P23946); experiment: Enzymatic assay, chymase
T1 sequence (P23946 22-247): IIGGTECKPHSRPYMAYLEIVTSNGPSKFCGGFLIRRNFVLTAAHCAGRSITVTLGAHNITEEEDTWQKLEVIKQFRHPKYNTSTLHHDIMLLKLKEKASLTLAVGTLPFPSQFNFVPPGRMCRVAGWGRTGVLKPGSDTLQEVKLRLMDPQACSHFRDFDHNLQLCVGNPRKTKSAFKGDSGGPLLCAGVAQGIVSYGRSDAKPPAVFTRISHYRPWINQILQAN

[3] = molecular target: T2, Elastase from human neutrophils (Homo sapiens, UniProt P08246); experiment: Enzymatic assay, elastase; settings: Elastase IC50
T2 sequence (P08246 30-267): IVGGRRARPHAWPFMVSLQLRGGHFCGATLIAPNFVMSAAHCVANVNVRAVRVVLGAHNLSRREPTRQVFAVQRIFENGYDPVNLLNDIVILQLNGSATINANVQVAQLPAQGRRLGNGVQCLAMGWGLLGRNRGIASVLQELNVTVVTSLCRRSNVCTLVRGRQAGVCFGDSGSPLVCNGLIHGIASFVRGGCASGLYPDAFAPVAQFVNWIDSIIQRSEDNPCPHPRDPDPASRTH

[4] = molecular target: Thrombin, from Human Plasma (Homo sapiens, UniProt P00734); experiment: Enzymatic assay, thrombin
[5] = test system: Tryptase, from human lung; experiment: Enzymatic assay, tryptase; settings: at 100 μM
[6] = molecular target: Urokinase from human urine (Homo sapiens, UniProt P00749); experiment: Enzymatic assay, urokinase
[7] = molecular target: T3, CathepsinG, from human neutrophils (Homo sapiens, UniProt P08311); experiment: Enzymatic assay, cathepsin G
T3 sequence (P08311 21-244): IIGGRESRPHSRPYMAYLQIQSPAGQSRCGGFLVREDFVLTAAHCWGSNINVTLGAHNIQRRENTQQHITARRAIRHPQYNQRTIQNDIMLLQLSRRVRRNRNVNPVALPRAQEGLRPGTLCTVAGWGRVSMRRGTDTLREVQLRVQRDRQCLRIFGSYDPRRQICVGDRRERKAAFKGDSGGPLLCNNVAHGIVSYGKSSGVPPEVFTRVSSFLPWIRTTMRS

[8] = molecular target: Chymotrypsin, from human pancreas (Homo sapiens, UniProt P17538); experiment: Enzymatic assay, chymotrypsin; settings: at 100 μM
Chain of Chymotrypsin, from human pancreas (P17538 19-263): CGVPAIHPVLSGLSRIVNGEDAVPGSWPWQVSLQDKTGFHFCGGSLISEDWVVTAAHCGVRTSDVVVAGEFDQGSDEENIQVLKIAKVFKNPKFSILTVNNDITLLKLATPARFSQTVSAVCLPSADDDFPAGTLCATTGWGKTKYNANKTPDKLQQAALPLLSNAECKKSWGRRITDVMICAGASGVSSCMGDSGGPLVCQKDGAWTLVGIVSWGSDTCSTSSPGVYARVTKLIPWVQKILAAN

[9] = molecular target: Coagulation Factor Xa, from uman plasma (Homo sapiens, UniProt P00742); experiment: Enzymatic assay, coagulation factor Xa
Chain of Coagulation Factor Xa, from uman plasma (P00742 235-488 limits assumed): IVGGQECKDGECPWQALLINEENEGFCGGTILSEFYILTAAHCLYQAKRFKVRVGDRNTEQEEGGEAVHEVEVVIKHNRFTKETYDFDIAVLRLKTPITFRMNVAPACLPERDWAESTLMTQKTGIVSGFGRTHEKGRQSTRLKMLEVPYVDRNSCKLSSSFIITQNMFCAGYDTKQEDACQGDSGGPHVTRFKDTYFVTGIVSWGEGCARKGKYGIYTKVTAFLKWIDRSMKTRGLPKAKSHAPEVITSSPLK
Chain of Coagulation Factor Xa, from uman plasma (P00742 41-179 limits assumed): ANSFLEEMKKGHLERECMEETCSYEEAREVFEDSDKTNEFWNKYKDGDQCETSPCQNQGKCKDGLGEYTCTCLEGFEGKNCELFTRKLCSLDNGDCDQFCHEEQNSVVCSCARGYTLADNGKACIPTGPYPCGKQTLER

Cathepsin G at 100 μM % ([7]; at 100 μM (stated in cell instead of IC50)) [at 100%]	Compound	Trypsin at 100 μM % [1] [%]	Chymase at 100 μM % [2] [%]	IC50 [3] [nM]	Thrombin at 100 μM % [4] [%]	Tryptase at 100 μM % [5] [%]	Urokinase at 100 μM % [6] [%]	IC50 ([7]; Cathepsin G IC50) [nM]	Chymotrypsin at 100 μM % [8]	FXa at 100 μM % [9] [%]	Tryptase At 100 μM % [5] [%]	Cathepsin G at 100 μM % ([7]; at 100 μM) [at 100%]	IC50 ([7]; read-out: Cathepsin G IC50) [nM]
–	CC[C@H](C)[C@@H]1NC(=O)[C@@H]2CCCN2C(=O)[C@@H]2CCCN2C(=O)[C@H](CC(=O)O)NC(=O)[C@H](CO)NC(=O)[C@H](CCCCN)NC(=O)[C@H]([C@@H](C)O)NC(=O)[C@@H]2CSSC[C@H](NC1=O)C(=O)N[C@@H](CC(=O)O)C(=O)N1CCC[C@@H]1C(=O)N1CCC[C@H]1C(=O)N[C@@H](Cc1ccccc1)C(=O)N2 [Ex. 2] (HELM PEPTIDE1{F.C.T.K.S.D.P.P.I.C.D.[dP].P}$PEPTIDE1,PEPTIDE1,2:R3-10:R3|PEPTIDE1,PEPTIDE1,1:R1-13:R2$$$V2.0)	92	0	> 100000	9.2	39.6	0.9	84	2.9%	5.3	–	–	–
–	CC[C@H](C)[C@@H]1NC(=O)[C@@H]2CCCN2C(=O)[C@@H]2CCCN2C(=O)[C@H](CC(=O)O)NC(=O)[C@H](CO)NC(=O)[C@H](CCCCN)NC(=O)[C@H]([C@@H](C)O)NC(=O)[C@@H]2CSSC[C@H](NC1=O)C(=O)N[C@@H](Cc1ccc(O)cc1)C(=O)N1CCC[C@@H]1C(=O)N1CCC[C@H]1C(=O)N[C@@H](Cc1ccc(O)cc1)C(=O)N2 [Ex. 26] (HELM PEPTIDE1{Y.C.T.K.S.D.P.P.I.C.Y.[dP].P}$PEPTIDE1,PEPTIDE1,2:R3-10:R3|PEPTIDE1,PEPTIDE1,1:R1-13:R2$$$V2.0)	84	0	> 100000	3	66.4	3.1	49	2.2%	6	–	–	–
–	CC[C@H](C)[C@@H]1NC(=O)[C@@H]2CCCN2C(=O)[C@@H]2CCCN2C(=O)[C@H](CC(=O)O)NC(=O)[C@H](CO)NC(=O)[C@H](CCCCN)NC(=O)[C@H]([C@@H](C)O)NC(=O)[C@@H]2CSSC[C@H](NC1=O)C(=O)N[C@@H]([C@@H](C)O)C(=O)N1CCC[C@@H]1C(=O)N1CCC[C@H]1C(=O)N[C@@H](CCc1ccccc1)C(=O)N2 [Ex. 28] (HELM PEPTIDE1{[O=C([C@H](CCc1ccccc1)N[*:1])[*:2]].C.T.K.S.D.P.P.I.C.T.[dP].P}$PEPTIDE1,PEPTIDE1,2:R3-10:R3|PEPTIDE1,PEPTIDE1,1:R1-13:R2$$$V2.0)	95	0	> 100000	12	0	1	39	32%	6	–	–	–
–	CC[C@H](C)[C@@H]1NC(=O)[C@@H]2CCCN2C(=O)[C@@H]2CCCN2C(=O)[C@H](CC(=O)O)NC(=O)[C@H](CO)NC(=O)[C@H](CCCCN)NC(=O)[C@H]([C@@H](C)O)NC(=O)[C@@H]2CSSC[C@H](NC1=O)C(=O)N[C@@H](CC(N)=O)C(=O)N1CCC[C@@H]1C(=O)N1CCC[C@H]1C(=O)N[C@@H](Cc1ccc(N)cc1)C(=O)N2 [Ex. 31] (HELM PEPTIDE1{[Nc1ccc(C[C@H](N[*:1])C(=O)[*:2])cc1].C.T.K.S.D.P.P.I.C.N.[dP].P}$PEPTIDE1,PEPTIDE1,2:R3-10:R3|PEPTIDE1,PEPTIDE1,1:R1-13:R2$$$V2.0)	98	12	> 100000	10	76	15	34	15%	8	–	–	–
–	CC[C@H](C)[C@@H]1NC(=O)[C@@H]2CCCN2C(=O)[C@@H]2CCCN2C(=O)[C@H](CC(=O)O)NC(=O)[C@H](CO)NC(=O)[C@H](CCCCN)NC(=O)[C@H]([C@@H](C)O)NC(=O)[C@@H]2CSSC[C@H](NC1=O)C(=O)N[C@@H](CO)C(=O)N[C@H](C)C(=O)N[C@@H](CC(=O)O)C(=O)N[C@@H](Cc1ccccc1)C(=O)N2 [Ex. 68] (HELM PEPTIDE1{F.C.T.K.S.D.P.P.I.C.S.[dA].D}$PEPTIDE1,PEPTIDE1,2:R3-10:R3|PEPTIDE1,PEPTIDE1,1:R1-13:R2$$$V2.0)	84.2	0	> 100000	5.4	21.3	4.6	59	4.3%	8.6	–	–	–
53.5	CCCC[C@@H]1NC(=O)[C@@H]2CCCN2C(=O)[C@H]2CCCN2C(=O)[C@H](Cc2ccc(O)cc2)NC(=O)[C@H](CCCCN)NC(=O)[C@H](CCC(N)=O)NC(=O)[C@@H]2CCCN2C(=O)[C@@H]2CCCN2C(=O)[C@H]([C@@H](C)CC)NC(=O)[C@H](CO)NC(=O)[C@H](C)NC(=O)[C@H]([C@@H](C)O)NC(=O)[C@H](CCC(=O)O)NC1=O [Ex. 104] (HELM PEPTIDE1{[Nle].E.T.A.S.I.P.P.Q.K.Y.[dP].P}$PEPTIDE1,PEPTIDE1,1:R1-13:R2$$$V2.0)	0	0	34	7.7	0	0	–	3.1 at 100 μM %	6.2	–	–	–
–	CC[C@H](C)[C@@H]1NC(=O)[C@H](CO)NC(=O)[C@H](C)NC(=O)[C@H]([C@@H](C)O)NC(=O)[C@@H]2CSSC[C@H](NC(=O)[C@H](CCC(N)=O)NC(=O)[C@@H]3CCCN3C(=O)[C@@H]3CCCN3C1=O)C(=O)N[C@@H](CCC(N)=O)C(=O)N1CCC[C@@H]1C(=O)N1CCC[C@H]1C(=O)N[C@@H](CCc1ccccc1)C(=O)N2 [Ex. 143] (HELM PEPTIDE1{[O=C([C@H](CCc1ccccc1)N[*:1])[*:2]].C.T.A.S.I.P.P.Q.C.Q.[dP].P}$PEPTIDE1,PEPTIDE1,2:R3-10:R3|PEPTIDE1,PEPTIDE1,1:R1-13:R2$$$V2.0)	12	0	15	12	–	8	–	91%	0	18	28	–
–	CCCC[C@@H]1NC(=O)[C@@H]2CCCN2C(=O)[C@H]2CCCN2C(=O)[C@H](Cc2ccccc2Cl)NC(=O)[C@@H]2CSSC[C@H](NC1=O)C(=O)N[C@@H]([C@@H](C)O)C(=O)N[C@@H](C)C(=O)N[C@@H](CO)C(=O)N[C@@H]([C@@H](C)CC)C(=O)N1CCC[C@H]1C(=O)N1CCC[C@H]1C(=O)N[C@@H](CCC(N)=O)C(=O)N2 [Ex. 144] (HELM PEPTIDE1{[Nle].C.T.A.S.I.P.P.Q.C.[O=C([C@H](Cc1ccccc1Cl)N[*:1])[*:2]].[dP].P}$PEPTIDE1,PEPTIDE1,2:R3-10:R3|PEPTIDE1,PEPTIDE1,1:R1-13:R2$$$V2.0)	7.5	0	7.5	3.6	–	6.2	–	80.6%	0	0	–	21200
–	CC[C@H](C)[C@@H]1NC(=O)[C@H](CO)NC(=O)[C@H](C)NC(=O)[C@H]([C@@H](C)O)NC(=O)[C@@H]2CSSC[C@H](NC(=O)[C@H](CCC(N)=O)NC(=O)[C@@H]3CCCN3C(=O)[C@@H]3CCCN3C1=O)C(=O)N[C@@H](Cc1ccccc1)C(=O)N1CCC[C@@H]1C(=O)N1CCC[C@H]1C(=O)N[C@@H](CCc1ccccc1)C(=O)N2 [Ex. 146] (HELM PEPTIDE1{[O=C([C@H](CCc1ccccc1)N[*:1])[*:2]].C.T.A.S.I.P.P.Q.C.F.[dP].P}$PEPTIDE1,PEPTIDE1,2:R3-10:R3|PEPTIDE1,PEPTIDE1,1:R1-13:R2$$$V2.0)	3	0	12	11	–	0	–	87%	1	22	1	–

Reference: patent US8658604B2, “Template-fixed beta-hairpin peptidomimetics with protease inhibitory activity” (Polyphor Ltd, priority 2005, dated 2014)
